Each structure is given as a SMILES string. Values joined by “and” are separate entries in the source; they are usually repeats but may differ in a detail not shown here. Equal entries are not always repeated.

As a reminder, the IC50 is the concentration that inhibits the measured activity by half. A high value points to lower potency.

The assay has as its target T1, hNCC(WT) (Homo sapiens, UniProt P55017).
T1 construct: expressed in transfected cells
T1 sequence (P55017 1-1021): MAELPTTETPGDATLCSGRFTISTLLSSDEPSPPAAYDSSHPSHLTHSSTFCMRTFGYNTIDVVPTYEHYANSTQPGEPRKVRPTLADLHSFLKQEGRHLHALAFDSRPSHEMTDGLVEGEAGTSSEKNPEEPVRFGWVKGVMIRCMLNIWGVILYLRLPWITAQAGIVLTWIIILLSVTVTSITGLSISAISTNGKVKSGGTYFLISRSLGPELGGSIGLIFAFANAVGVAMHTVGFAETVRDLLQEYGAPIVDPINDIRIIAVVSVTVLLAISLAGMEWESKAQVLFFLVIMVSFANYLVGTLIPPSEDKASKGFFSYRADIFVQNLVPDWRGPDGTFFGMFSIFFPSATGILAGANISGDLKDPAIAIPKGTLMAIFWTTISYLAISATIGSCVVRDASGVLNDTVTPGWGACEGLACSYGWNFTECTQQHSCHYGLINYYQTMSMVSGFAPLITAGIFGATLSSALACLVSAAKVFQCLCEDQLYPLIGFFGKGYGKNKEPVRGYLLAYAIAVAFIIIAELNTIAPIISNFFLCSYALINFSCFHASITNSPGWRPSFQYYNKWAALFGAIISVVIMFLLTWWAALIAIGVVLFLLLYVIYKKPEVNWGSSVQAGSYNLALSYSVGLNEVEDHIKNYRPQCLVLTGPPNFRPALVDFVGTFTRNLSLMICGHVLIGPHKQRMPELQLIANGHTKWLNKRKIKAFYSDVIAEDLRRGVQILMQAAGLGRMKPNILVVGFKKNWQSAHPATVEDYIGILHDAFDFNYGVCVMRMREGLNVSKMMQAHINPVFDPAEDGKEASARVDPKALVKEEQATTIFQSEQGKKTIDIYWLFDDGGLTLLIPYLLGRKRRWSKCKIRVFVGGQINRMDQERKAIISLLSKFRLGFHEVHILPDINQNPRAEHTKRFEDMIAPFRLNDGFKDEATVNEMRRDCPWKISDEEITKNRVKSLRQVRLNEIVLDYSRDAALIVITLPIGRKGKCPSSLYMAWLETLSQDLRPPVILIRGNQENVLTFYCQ
Put plainly: 125I- uptake assay, HEK293S cells stably expressing hNCC(WT). Format: cell-based. To be noted: for apparent affinity compared to polythiazide (times lower): hNCC(WT), Supplementary Fig. 2d. The method, then: HEK293S cell lines, cultured in 293 Freestyle medium (Life Technologies; plus 10% fetal bovine serum), stably expressing hNCC and its variants were generated following published protocols. Cells were transfected using Lipofectamine 3000 (Invitrogen) with a pSBbi-RP-based plasmid containing hNCC or its variants and the SB100X vector. Puromycin (2 μg/mL; Gemini Bio-Products) was used for selection of stable cell lines.
To prepare for the uptake experiment, cells were plated at 0.5 × 10^6 cells/well in 24-well plates one day in advance. To activate NCC, cells were treated with a chloride-free hypotonic solution composed of 67.5 mM sodium-, 2.5 mM potassium-, 0.25 mM magnesium-, and 0.25 mM calcium-gluconate, as well as 7.5 mM HEPES pH 7.4 (buffered using Tris) at 37 °C for 10 min[72]. After the activation step, the experiments were carried out at room temperature. Ten minutes before the start of ^125I^− uptake, 70 μM Bumetanide (Thermo Scientific Chemicals) and 100 μM 4,4′-diisothiocyanatostilbene-2,2′-disulfonic acid (DIDS; Sigma) were added to suppress background iodide uptake activity. Indicated thiazide diuretics were also added to the indicated concentrations 10 min before the start of ^125I^− uptake. The original buffer was switched to an uptake buffer composed of 135 mM Na-gluconate, 5 mM K-gluconate, 1 mM Mg-gluconate, 1 mM Ca-gluconate, 70 μM bumetanide, 100 μM DIDS, 1 mM NaI, 0.25 μCi/ml Na^125I (American Radiolabeled Chemicals, Inc.), and 15 mM HEPES pH 7.4 (buffered using Tris), in the presence or absence of thiazide diuretics to initiate ^125I^− uptake. The ^125I^− uptake process lasted 1 h and was stopped by two rapid washes using ice-cold 110 mM MgCl2. Cells lysed using 1% sodium dodecyl sulfate (SDS) were analyzed by scintillation counting.
To calculate the fold change of the half-maximal inhibitory concentration (IC50) between hNCC(WT) and different hNCC variants, individual dose-response curves were normalized first using the smallest mean and the value of the lowest concentration as 0% and 100%, respectively. The normalized data were then fitted using the “EC50 shift” nonlinear regression in GraphPad Prism 10 with the shared EC50Control assigned to be the IC50 of hNCC(WT). The following constraints were used in the EC50 shift analysis. The EC50Control was set to be shared across all curves under analysis and constrained to be greater than 0. The EC50Ratio was constrained to be greater than 0. The bottom, top, and HillSlope were constrained to be 0, 100, and −1, respectively. For Fig. 1f, g and Supplementary Fig. 2d, GraphPad Prism 10 was used to perform curve fitting and IC50 calculation for normalized data using y = 100/(1 + (x/IC50)).

[1] abbreviates: thiazide-sensitive iodide uptake, HEK293S stable cells, 1 mM extracellular iodide.

For `NS(=O)(=O)c1cc(C2(O)NC(=O)c3ccccc32)ccc1Cl` (centres unmarked) [chlorthalidone], the “apparent affinity compared to polythiazide (times lower)” value is given as ~ 40 times. The same compound registered an IC50 under setting [1] of 23 nM.

As for `CC1Cc2ccccc2N1NC(=O)c1ccc(Cl)c(S(N)(=O)=O)c1` (centres unmarked) [indapamide], the “apparent affinity compared to polythiazide (times lower)” value is ~ 16 times. This compound showed an IC50 (as quoted in reviewer comment on the earlier manuscript version) of 9.3 nM.

Take `CN1C(CSCC(F)(F)F)Nc2cc(Cl)c(S(N)(=O)=O)cc2S1(=O)=O` (centres unmarked) [polythiazide]: under setting [1], the IC50 is 0.58 nM and ~0.5 nM.

The record behind these values is PMC12365235, “Molecular mechanisms of thiazide-like diuretics-mediated inhibition of the human Na-Cl cotransporter” (Nature Communications, 2025).
